In publication PMC5607274, “An iterative compound screening contest method for identifying target protein inhibitors using the tyrosine-protein kinase Yes” (Scientific Reports, 2017):

Target: T1, human recombinant Yes [a.a. 2–543 (end)] (Homo sapiens, UniProt P07947)
T1 construct: human recombinant Yes [a.a; 2–543 (end)]; purchased BPS Bioscience 40488
Assay: ADP-Glo kinase assay, inhibition rates of Yes phosphorylation activity (first and second screening)
Assay type: biochemical
Conditions: 10 μmol L−1 compound; for First screening IR (inhibition rate): mean of n = 4 wells; for Second screening IR (inhibition rate): dissolved from fresh powder, n = 4
Method in brief: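 Hits from a first pass were rescreened after re-dissolution from fresh powder. The first pass reported the mean inhibition rate of quadruplicate wells per compound. Activity was that of recombinant human Yes [a.a. 2–543] kinase, read out with the ADP-Glo ADP-detection method.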

T1 sequence (P07947 2-543): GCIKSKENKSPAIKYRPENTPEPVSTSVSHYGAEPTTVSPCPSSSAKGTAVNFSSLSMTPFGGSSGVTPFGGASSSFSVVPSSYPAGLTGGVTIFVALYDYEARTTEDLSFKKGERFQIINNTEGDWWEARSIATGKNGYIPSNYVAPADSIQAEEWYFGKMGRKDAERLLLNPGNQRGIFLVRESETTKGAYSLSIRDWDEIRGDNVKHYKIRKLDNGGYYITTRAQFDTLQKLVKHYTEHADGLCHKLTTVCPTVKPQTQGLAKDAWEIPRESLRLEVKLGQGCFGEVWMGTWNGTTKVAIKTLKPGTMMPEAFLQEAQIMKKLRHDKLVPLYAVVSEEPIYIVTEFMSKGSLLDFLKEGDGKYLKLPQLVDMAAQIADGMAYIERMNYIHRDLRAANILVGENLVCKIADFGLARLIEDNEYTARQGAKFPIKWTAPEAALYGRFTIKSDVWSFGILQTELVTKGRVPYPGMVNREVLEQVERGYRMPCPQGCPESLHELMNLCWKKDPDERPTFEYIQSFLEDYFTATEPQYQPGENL

First screening IR (inhibition rate) [%] | Second screening IR (inhibition rate) [%] | SMILES
1 | – | Cc1ccc(O)c(-c2cc(-c3ccccc3)c3ccccc3n2)c1.Cl [Compound Z48951082]
1 | – | Cl.N#Cc1ccc(-c2cc(-c3ccccc3Cl)c3cc(Cl)ccc3n2)cc1 [Compound Z48951737]
73 | -3 | CS(=O)(=O)c1ccc(S(=O)(=O)Cl)cc1 [Compound Z248485700]
4 | – | Cc1noc(C)c1COC(=O)c1ccc2[nH]c(C)c(C)c2c1 [Compound Z17094388]
13 | – | CCn1nc(NCc2cn[nH]c2-c2ccc(C)o2)cc1C1CC1 [Compound Z1421828757]
4 | – | CC1CN(c2ncnc3c2cnn3CCC#N)CCO1 (stereo not drawn) [Compound Z990855820]
1 | – | CCn1c2ccccc2c2cc(NC(=O)COC(=O)c3c4c(nc5ccccc35)CCCC4)ccc21 [Compound Z19690549]
-10 | – | C#CC(C)(C)N(C)S(=O)(=O)c1ccc(S(C)(=O)=O)cc1 [Compound Z1911236831]
2 | – | COc1ccc(NC(C)=O)cc1S(=O)(=O)N(C)Cc1cccc(OC)c1OC [Compound Z45476409]
2 | – | Clc1ccc(Oc2cccc(-c3nc4c5ccccc5c5ccccc5c4[nH]3)c2)cc1 [Compound Z57984419]
5 | – | CN(C)c1nc(N)nc(COc2ccc3cc(Br)ccc3c2)n1 [Compound Z168931562]
17 | – | O=C(CCCSc1nc2ccccc2[nH]1)Nc1ccc(-c2nc3ccccc3[nH]2)cc1 [Compound Z30270226]
0 | – | O=C(O)c1c2c(nc3ccccc13)/C(=C\c1ccc(Cl)c(Cl)c1)CCC2 [Compound Z46035759]
27 | – | NS(=O)(=O)c1ccc2nc(-c3ccc4c(c3)-c3ccccc3C4)cn2c1 [Compound Z82176567]
-17 | – | CC1CCN(c2ccc([N+](=O)[O-])cc2C(=O)N2CCN(Cc3cn4cc(Cl)ccc4n3)CC2)CC1 [Compound Z901305410]
15 | – | Cc1cc(/C=C/C(=O)N2CCOCC2)c(C)n1-c1ccnn1C(C)C [Compound Z79434439]
21 | – | O=C(c1cc(Cc2ccccc2)ccc1O)N1CCN(Cc2ccon2)CC1 [Compound Z1285074692]
-16 | – | CC(Oc1ccc(N(C)C(N)=O)cc1)c1nnc(-c2cccc(Cl)c2)o1 (stereo not drawn) [Compound Z1329202056]
8 | – | CC(NC(=O)c1ccc2[nH]cnc2n1)c1ccc(-c2cncnc2)cc1 (stereo not drawn) [Compound Z1669230171]
-3 | – | CC(C)CCn1c(CN2CCN(Cc3ccco3)CC2)nc2c1c(=O)[nH]c(=O)n2Cc1ccccc1 [Compound Z195914778]
8 | – | CS(=O)(=O)c1ccc(S(=O)(=O)N2CCCC2)cc1 [Compound Z285664940]
51 | 2 | CCOc1ccc(-c2nc3ccccc3c(-c3ccccc3)c2Cl)cc1.Cl [Compound Z57038735]
-5 | – | CC(NC(=O)c1ccc(-n2cnc3ccccc32)cc1)c1ccc(S(N)(=O)=O)cc1 (stereo not drawn) [Compound Z87656555]

First screening IR (inhibition rate) [%] | Second screening IR (inhibition rate) [%] | SMILES
20 | – | CCCOc1c(Br)cc(C(=O)Nc2cccc(S(=O)(=O)N(CC)CC)c2)cc1OC [Compound Z30220173]
28 | – | CNS(=O)(=O)c1cc(C(=O)N2CCN(Cc3cc(OC)ccc3OC)CC2)ccc1Cl [Compound Z26970092]
-6 | – | Cc1nn(C)c2nc(-c3ccccc3)cc(C(=O)Nc3ccc4[nH]c(=O)[nH]c4c3)c12 [Compound Z228695802]
0 | – | COc1ccc2c(c1)c(CC(=O)OCc1ncc(Cl)n1C)c(C)n2C(=O)c1ccc(Cl)cc1 [Compound Z148531038]
-2 | – | Cn1c2ccccc2n2c3ccccc3c(=O)c(C#N)c12 [Compound Z734296158]
4 | – | O=C(Nc1n[nH]c(-c2ccoc2)n1)c1cc(-c2ccc(F)cc2)on1 [Compound Z1426521974]
18 | – | Cc1ccc(Cn2c(=O)c3ccccc3n3c(CCC(=O)NCCCN4CCC(C)CC4)nnc23)cc1 [Compound Z1169067743]
12 | – | COc1ccc(/C(O)=C2\C(=O)C(=O)N(CCCn3ccnc3)C2c2ccc(OC(C)C)cc2)cc1 (stereo not drawn) [Compound Z316169960]
41 | – | O=S(=O)(Nc1cccc(-c2cn3ccccc3n2)c1)c1ccccc1 [Compound Z57289575]
-12 | – | O=C(Nc1ccc2ccccc2n1)c1ccc(OCc2cccnc2)cc1 [Compound Z339583070]
-17 | – | NC(=O)C(NCCCN1CCc2ccccc21)c1ccccc1 (stereo not drawn) [Compound Z320065982]
-14 | – | CC(C)S(=O)(=O)CCS(=O)(=O)Cc1ccc(Cl)cc1 [Compound Z1347350562]
4 | – | NC(=O)NCc1ccc(C(=O)N2CCN(c3ncc(C(F)(F)F)cc3Cl)CC2)cc1 [Compound Z30640594]
26 | – | Cc1ccc(S(C)(=O)=O)cc1S(N)(=O)=O [Compound Z385450636]
-1 | – | Cc1n[nH]c(C)c1C1CCCCCN1C(=O)Nc1cnc(N(C)C)nc1 (stereo not drawn) [Compound Z1590996465]
10 | – | Cc1nnc(SCC(=O)c2cc3cc(Cl)ccc3o2)n1C1CC1 [Compound Z98941608]
6 | – | Clc1ccccc1/C=C1\CCCc2c1nc1ncnn1c2-c1ccccc1Cl [Compound Z56799005]
6 | – | CCn1ncc2c(C(=O)NCc3cccc(OC)c3)cc(-c3ccccc3)nc21 [Compound Z224328394]
-11 | – | O=C(OCc1cccc(C(F)(F)F)c1)c1n[nH]c(=O)c2ccccc12 [Compound Z94561070]
-3 | – | Cc1cc(-c2ccccc2)nc(SC(C)C(=O)Nc2sc3c(c2C(N)=O)CCC3)n1 (stereo not drawn) [Compound Z114120486]
-8 | – | Cc1ccnn1-c1ccc(C(=O)N2CCC(N3CCCC3C(N)=O)CC2)cc1 (stereo not drawn) [Compound Z968814168]
0 | – | CC1CCC(C(C)C)C(OC(=O)CSc2ncnc3ccccc23)C1 (stereo not drawn) [Compound Z19316042]
16 | – | C=CCN(CC(=O)Nc1ccc(S(=O)(=O)N(CC)CC)cc1)Cc1cccs1 [Compound Z89203975]

First screening IR (inhibition rate) [%] | Second screening IR (inhibition rate) [%] | SMILES
-5 | – | Cn1ncc2c(NCC3(c4ccccc4)CC3)ncnc21 [Compound Z229243940]
44 | -10 | O=C(Nc1cc(C(F)(F)F)ccc1N1CCCCC1)c1ccc(Cl)c(S(=O)(=O)Nc2ccccc2C(=O)Nc2cc(C(F)(F)F)ccc2N2CCCCC2)c1 [Compound Z56805970]
4 | – | Cc1cccc(-c2nc(C(C)C)no2)c1NC(=O)CCc1ccccc1 [Compound Z1082320758]
-1 | – | Cc1cccnc1NC(=O)c1ccc(CSc2ccccc2)cc1 [Compound Z58490632]
2 | – | CCOC(=O)c1c(C)oc2ncn(Cc3cccc(F)c3F)c(=O)c12 [Compound Z154098858]
44 | – | CCn1c(O)c(N=Nc2ccc([N+](=O)[O-])cc2S(=O)(=O)Nc2ccc(C)cc2C)c2ccccc21 [Compound Z49643067]
14 | – | COc1ccc(-c2nc(NC(=O)c3ccc(NC(=O)c4ccccc4)cc3)n[nH]2)cc1 [Compound Z332936670]
4 | – | Cc1cc(-c2ccccc2)cc2c3ccccc3c3ccccc3[n+]12.[O-][Cl+3]([O-])([O-])[O-] [Compound Z56761787]
-6 | – | Nc1nc(N)nc(CSCc2ccc(-c3ccccc3)cc2)n1 [Compound Z99552008]
-4 | – | CC1(C)CN(S(=O)(=O)C2CS(=O)(=O)c3ccccc32)CCO1 (stereo not drawn) [Compound Z1031114832]
-4 | – | CC1CCCN(Cc2ccc(CNCC3CNc4ccnn4C3)cc2)C1 (stereo not drawn) [Compound Z1097879141]
30 | – | COc1ccc(/C=C2/CC(C)Cc3c2nc2ccccc2c3C(=O)OCC(N)=O)cc1 (stereo not drawn) [Compound Z15674725]
-3 | – | Cc1sc2nc(-c3cccnc3)nc(NC3CC3)c2c1C [Compound Z31232965]
-1 | – | COC1(C)CC(N(C)C(=O)NC2CCCn3nc(C(C)C)nc32)C1(C)C (stereo not drawn) [Compound Z1396774495]
-2 | – | c1cncc(-c2nc(SCc3nc4ccccc4o3)n[nH]2)c1 [Compound Z1095448120]
12 | – | CCN(C1CCS(=O)(=O)C1)S(=O)(=O)c1ccc(Cl)c(Cl)c1 (stereo not drawn) [Compound Z45467101]
-2 | – | Cc1cnc(C(=O)Nc2ccc3nc(-c4ccc(F)cc4)[nH]c3c2)cn1 [Compound Z651750688]
-1 | – | Cn1c2ccccc2n2c3cccc(F)c3c(=O)c(C#N)c12 [Compound Z734467112]
0 | – | NS(=O)(=O)c1ccc(Cl)c(S(N)(=O)=O)c1 [Compound Z56877166]
1 | – | CC(Sc1ccc2c(c1)CCC2)C(=O)Nc1sc2c(c1C(N)=O)CCC2 (stereo not drawn) [Compound Z113592752]
12 | – | Nc1ncnc(Nc2ccccc2F)n1 [Compound Z56931704]
29 | – | CNc1snc(C)c1C(=O)NC(C)c1sc(-c2ccc(F)cc2)nc1C (stereo not drawn) [Compound Z1129440199]
1 | – | CC1CC(CNC(=O)c2cccc(O)c2)CN1Cc1ccccc1 (stereo not drawn) [Compound Z1633590863]
